Experiments:
Type in all cases: in vivo, rice
[1] = test system: GAT T0 generation transformants and wild-type control ZH11; test: Bentazon sensitive phenotype, spraying of scribed leaf area, T0 generation
Protocol: In order to test the working efficiency of herbicide sensitive elements in the GAT system, after the identification of bispyribac-sodium resistance phenotype, a 3 g/L bentazone solution was prepared with 48% bentazone mother liquor (Changzhou Precision Biotechnology Co., Ltd.). The scribed area of plant leaves of surviving GAT T0 generation (347 strains) in the last spraying experiment with bispyribac-sodium and the wild-type control ZH11 were sprayed with the resultant solution, and were continuously observed after spraying. Some GAT transformants T0 had curly and yellow leaf tips on the third day after spraying. […] Meanwhile, 86 strains were highly resistant to bispyribac-sodium and highly sensitive to bentazone. Based on the similar analysis of the transformation events of the above bispyribac-sodium resistance strains, it can be seen that this experiment confirmed that the working efficiency of herbicide sensitive elements in the GAT system is high, and the created GAT seed breeding system can quickly and accurately identify the corresponding phenotype thereof.

[2] = test system: T1 generation seedlings of GAT key plants, ZH11, CK+ (P450i2-30); test: Bentazone spraying of T1 generation seedlings; details: 3 g/L bentazone
Protocol: In order to identify the working efficiency of herbicide sensitive elements in the T1 generation of the GAT transformants, a 3 g/L bentazone solution was prepared with 48% bentazone mother liquor (Changzhou Precision Biotechnology Co., Ltd.). Some plants in the positive strains screened by bispyribac-sodium in Example 5-1 were sprayed, and continuously observed after spraying. […] See Table 3 and FIG. 22 for specific results.
ZH11 is Resistance Control, CK+(P450i2-30) is the Sensitive Positive Control

[3] = test system: seeds of GAT strains, hybrids with sterile line 1907, ZH11, 9311, MH63; test: Detection of the escape rate of GAT pollen: seed screening on BS medium; details: 21 days; for Survival number / Survival rate: 1/2MS + 3uM BS
From the text: To further detect whether its pollen escapes, in this example, the rice material of common sterile line was pollinated through the strains of the excellent initial maintainer line of GAT, and it was checked whether the hybrid seed has the resistance to bispyribac-sodium (the method is the same as that in Example 5). […] GAT strains (23-2, 88-4) were selected as male parents to pollinate female sterile line 1907, and 221 and 373 hybrid seeds were obtained respectively.

[4] = test system: seeds of GAT key strains and ZH11; test: Tissue culture germination screening on bispyribac-sodium (BS) medium; details: 1/2MS + 3 μm bispyribac-sodium
Protocol: In order to identify the working efficiency of screening marker elements in the GAT T1 generation, tissue culture germination was used to screen the T1 generation of key strains and candidate strains.
Therefore, ½MS medium+3 μm bispyribac-sodium was prepared for screening the key strains and the candidate strains of GAT, and the germination results were shown in Table 2.

[5] = test system: GAT T0 generation transformants and wild-type control ZH11 seedlings; test: Bispyribac-sodium resistance phenotype, spraying of T0 seedlings
Protocol: In order to test the working efficiency of screening marker elements in the GAT system, a 600 mg/L bispyribac-sodium solution was prepared with 10% bispyribac-sodium (Nominee, Japan), and 563 GATT0 generation obtained in example 2 and wild-type control ZH11 3 to 5 leaf stage seedlings were sprayed. After spraying, continuous observation was carried out.

[6] = 347 GAT T0 strains, 3 g/L bentazone
[7] = strain 11-1 T1, 8 plants sprayed
[8] = strain 23-2 T1, 12 plants sprayed
[9] = strain 23 T1, 14 plants sprayed
[10] = strain 53-3 T1, 8 plants sprayed
[11] = strain 77-2 T1, 2 plants sprayed
[12] = strain 88-4 T1, 13 plants sprayed
[13] = strain 93-2 T1, 9 plants sprayed
[14] = strain 95-2 T1, 2 plants sprayed
[15] = strain 174-3 T1, 10 plants sprayed
[16] = strain 175-4 T1, 7 plants sprayed
[17] = strain CK + (P450i2-30) (sensitive positive control), 4 plants sprayed
[18] = strain ZH11 (resistance control), 4 plants sprayed
[19] = hybrid 1907 × 23-2(T1), total number 211
[20] = hybrid 1907×88-4(T1), total number 363
[21] = strain 23-2(T2), total number 200
[22] = strain 88-4(T2), total number 200
[23] = 563 GAT T0 transformants, 600 mg/L spray, 14th day

## CC(C)N1C(=O)c2ccccc2NS1(=O)=O [bentazone]
[1]; [6]
  number of low sensitive or non-phenotypic strains: 122 strains
  number of strains withered severely then recovered (moderately sensitive): 81 strains
[1]; 347 GAT T0 strains, 3 g/L bentazone, 7th to 14th day
  number of strains with irreversible leaf wilt (highly sensitive): 144 strains
[1]; GAT T0 strains, 600 mg/L bispyribac-sodium then 3 g/L bentazone
  number of strains highly resistant to bispyribac-sodium and highly sensitive to bentazone: 86 strains
[2]; T1 strains
  number of strains with individual plants slightly less sensitive, eventually died: 5 strains
[2]; bispyribac-sodium resistance T1 strains, 14th day
  number of strains highly susceptible to wilt and death (highly sensitive): 6 strains
[2]; strain 4 T1, 2 plants sprayed
  Highly sensitive ratio: 1/2
  Highly sensitive(dead): 1
  Low sensitivity: 0
  Medium sensitivity: 1
  No phenotype: 0
[2]; strain 7 T1, 15 plants sprayed
  Highly sensitive ratio: 2/15
  Highly sensitive(dead): 2
  Low sensitivity: 13
  Medium sensitivity: 0
  No phenotype: 0
[2]; [7]
  Highly sensitive ratio: 8/8
  Highly sensitive(dead): 8
  Low sensitivity: 0
  Medium sensitivity: 0
  No phenotype: 0
[2]; strain 20 T1, 3 plants sprayed
  Highly sensitive ratio: 2/3
  Highly sensitive(dead): 2
  Low sensitivity: 0
  Medium sensitivity: 1
  No phenotype: 0
[2]; [8]
  Highly sensitive ratio: 11/12
  Highly sensitive(dead): 11
  Low sensitivity: 0
  Medium sensitivity: 1
  No phenotype: 0
[2]; [9]
  Highly sensitive ratio: 14/14
  Highly sensitive(dead): 14
  Low sensitivity: 0
  Medium sensitivity: 0
  No phenotype: 0
[2]; strain 28 T1, 7 plants sprayed
  Highly sensitive ratio: 7/7
  Highly sensitive(dead): 7
  Low sensitivity: 0
  Medium sensitivity: 0
  No phenotype: 0
[2]; [10]
  Highly sensitive ratio: 8/8
  Highly sensitive(dead): 8
  Low sensitivity: 0
  Medium sensitivity: 0
  No phenotype: 0
[2]; [11]
  Highly sensitive ratio: 2/2
  Highly sensitive(dead): 2
  Low sensitivity: 0
  Medium sensitivity: 0
  No phenotype: 0
[2]; [12]
  Highly sensitive ratio: 12/13
  Highly sensitive(dead): 12
  Low sensitivity: 0
  Medium sensitivity: 1
  No phenotype: 0
[2]; [13]
  Highly sensitive ratio: 8/9
  Highly sensitive(dead): 8
  Low sensitivity: 1
  Medium sensitivity: 0
  No phenotype: 0
[2]; [14]
  Highly sensitive ratio: 2/2
  Highly sensitive(dead): 2
  Low sensitivity: 0
  Medium sensitivity: 0
  No phenotype: 0
[2]; [15]
  Highly sensitive ratio: 4/10
  Highly sensitive(dead): 4
  Low sensitivity: 6
  Medium sensitivity: 0
  No phenotype: 0
[2]; [16]
  Highly sensitive ratio: 5/7
  Highly sensitive(dead): 5
  Low sensitivity: 0
  Medium sensitivity: 2
  No phenotype: 0
[2]; [17]
  Highly sensitive ratio: 4/4
  Highly sensitive(dead): 4
  Low sensitivity: 0
  Medium sensitivity: 0
  No phenotype: 0
[2]; [18]
  Highly sensitive ratio: 0/4
  Highly sensitive(dead): 0
  Low sensitivity: 0
  Medium sensitivity: 0
  No phenotype: 4

## COc1cc(OC)nc(Oc2cccc(Oc3nc(OC)cc(OC)n3)c2C(=O)O)n1 [bispyribac-sodium]
[3]; [19]
  Survival number: 0
  Survival rate: 0.00%
[3]; [20]
  Survival number: 0
  Survival rate: 0.00%
[3]; hybrid seeds 1907 x GAT strains 23-2, 88-4, 1/2MS+3 uM BS
  germination rate: 0%
[3]; [21]
  Survival number: 95
  Survival rate: 47.50%
[3]; [22]
  Survival number: 83
  Survival rate: 41.50%
[3]; strain 9311, total number 200
  Survival number: 0
  Survival rate: 0.00%
[3]; strain MH63, total number 200
  Survival number: 0
  Survival rate: 0.00%
[3]; strain ZH11, total number 200
  Survival number: 0
  Survival rate: 0.00%
[4]; strain 4, 45 seeds
  Germination: 24
  Non-germination: 21
[4]; strain 7, 29 seeds
  Germination: 11
  Non-germination: 18
[4]; strain 11-1, 58 seeds
  Germination: 26
  Non-germination: 32
[4]; strain 20, 40 seeds
  Germination: 10
  Non-germination: 30
[4]; strain 23-2, 30 seeds
  Germination: 19
  Non-germination: 11
[4]; strain 23, 110 seeds
  Germination: 61
  Non-germination: 49
[4]; strain 28, 59 seeds
  Germination: 16
  Non-germination: 43
[4]; strain 53-3, 19 seeds
  Germination: 7
  Non-germination: 12
[4]; strain 77-2, 46 seeds
  Germination: 29
  Non-germination: 17
[4]; strain 88-4, 62 seeds
  Germination: 30
  Non-germination: 32
[4]; strain 93-2, 34 seeds
  Germination: 15
  Non-germination: 19
[4]; strain 95-2, 35 seeds
  Germination: 10
  Non-germination: 25
[4]; strain 174-3, 15.2 seeds
  Germination: 12
  Non-germination: 3.2
[4]; strain 175-4
  Germination: 14
[4]; strain 175-4, 27.3 seeds
  Non-germination: 13.3
[4]; strain ZH11 (CK), 40 seeds
  Germination: 0
  Non-germination: 40
[5]; [23]
  number of growth inhibited strains (mediumly resistant): 163 strains
  number of irreversible death or near-death strains (non-resistant or low resistant): 216 strains
  number of normal growth strains (highly resistant): 184 strains
[5]; GAT T0 transformants, 600 mg/L spray
  probability of GAT transformants showing normal growth, highly resistant: 32.68%
[5]; control ZH11, 600 mg/L bispyribac-sodium spray, 3 to 5 leaf stage, third day
  appearance of leaves after spraying: withered and yellow
[5]; control ZH11, 600 mg/L bispyribac-sodium spray, 14th day
  appearance after spraying: completely died
[5]; control ZH11, 600 mg/L bispyribac-sodium spray, seventh day
  appearance after spraying: withered and yellow and was dying

From patent publication US12516346B2, “Intelligent genetic breeding and seed production system for crop cross breeding and hybrid seed production, and application thereof” (Hainan Bolian Technology Co., Ltd., priority 2020, dated 2026)
